This is an account of results in PMC5974752, “Bax/Tubulin/Epithelial-Mesenchymal Pathways Determine the Efficacy of Silybin Analog HM015k in Colorectal Cancer Cell Growth and Metastasis” (Frontiers in Pharmacology, 2018).

The subject of assay [1] is HCT116. As to the kind of experiment: MTT assay. Type of assay: cell-based, human. As to conditions: for IC50: Homo sapiens, HCT-116, MTT, 72 h incubation, mean ± SD of three experiments, read-out: IC50 ± SD, Colon HCT116. How it is done: (§1) The 3-(4,5-dimethylthiazol-2-yl)-2,5-diphenyltetrazolium bromide (MTT) assay was used to determine the sensitivity of the different CRC cells to the novel silybin derivatives (Hussein et al., [2017]; Manivannan et al., [2017]). The cells were seeded at a density of 4,000–5,000 cells/well in 96 well plates and incubated with serial dilutions of the compounds (0, 0.1, 0.3, 1, 3, 10, 30, and 100 μM). The MTT dye (4 mg/ml) was added after 72 h of incubation and incubated with the cells for an additional 4 h at 37°C. Following incubation, the media was discarded and the formazan crystals were dissolved by adding 100 μL of DMSO to each well. A DTX 880 multimode detector (Beckman Coulter Life, Indianapolis IN, USA) was used to determine the absorbance readings at a wavelength of 570 nm. The IC50 values were determined based on 3 separate experiments, with each experiment done in triplicate. The selectivity of the compounds was determined by comparing their cytotoxicity for CRC to normal epithelial cell lines (CHO, and CRL1459).

A further assay has as its system CRL-1459. The assay is described as follows: MTT assay, normal cell line. Type of assay: cell-based. As to conditions: 72 h incubation, mean ± SD of three experiments. The protocol:
as §1

Another assay has as its system CHO. The assay is described as follows: MTT assay, normal cell line. Type of assay: cell-based, Chinese hamster. As to conditions: Cricetulus griseus, 72 h incubation, mean ± SD of three experiments. The protocol:
as §1

For the next assay, the system named is LOVO. The assay is described as follows: MTT assay. As to conditions: Homo sapiens, 72 h incubation, mean ± SD of three experiments, read-out: IC50 ± SD, Colon LOVO. Type of assay: cell-based. The protocol:
as §1

A further assay relates to S1. As to the kind of experiment: MTT assay. Type of assay: cell-based. As to conditions: Homo sapiens, 72 h incubation, mean ± SD of three experiments, read-out: IC50 ± SD, Colon S1. How it is done: as §1
Assay [2] deals with HCT116 cells. The assay is described as follows: CellTiter-Glo luminescent assay (ATP content). The format is cell-based. As to conditions: Homo sapiens, HCT-116, data not shown, read-out: IC50, ATP depletion. How it is done:
Subsequently, we conducted experiments to determine if compound 15k produced a time-dependent effect on cell death. […] The HCT116 cells had intense fluorescence over time compared to the cells incubated with vehicle, with a significant difference in the number of dead cells after 24 h of incubation with 2 μM of 15k. […] The cytotoxicity of 15k and 15j in HCT116 cells were further determined using a more homogeneous CellTiter-Glo® luminescent cell based assay that measures the ATP content in the metabolically active cells.

The test system of assay [3] is LOVO cells. As to the kind of experiment: Transwell migration assay. Type of assay: cell-based, human. As to conditions: 2 and 4 μM, 24 h, vs vehicle. How it is done: (§2) The effect of compound 15k on the invasiveness of LOVO was tested using 24 trans-well inserts with an […]. The addition of the insert to the well forms two chambers (upper and lower), where the upper chamber was used to grow the cells on the porous membrane. The lower chamber was filled with 600 μl of cell-free DMEM medium. A 200 μl of cell suspension was added to each insert and allowed to attach for 1 h. The test compound was added in different concentrations and incubated with the cells for 24 h. […] Finally, the remaining migrated cells were fixed by methanol and dyed with 0.1% crystal violet dye and observed with an EVOS microscope. The number of migrated cells was counted and compared between the treated and control cells.

In assay [4] the test system is HCT116. The assay is described as follows: Cell cycle analysis (PI, flow cytometry). The format is cell-based, human. As to conditions: 0, 2 or 4 μM, 12 h, data not shown. The protocol: Cell cycle analysis was performed as described previously (Pozarowski and Darzynkiewicz, [2004]). Briefly, a 6 well plate was used for the seeding of HCT116 at 1 × 10^6 cells/well. The next day, 15j and 15k (0, 2, or 4 μM) were added and incubated with the seeded cells. After 12 h, the cells were trypsinzed with 0.25% trypsin, 2.21 mM EDTA, 1X, washed, counted and resuspended in 0.5 ml of ice cold PBS. PI stain was added to each suspension for at least 15 min to stain the DNA. The cell cycle analysis and cell distribution for each phase was measured using a BD Accuri™ C6 flow cytometer (BD Biosciences, Becton-Dickinson, San Jose, CA, USA) and analyzed using FCS express 5 plus De Novo software (Glendale, CA, USA).

For assay [5], the system named is HCT116 cells. As to the kind of experiment: Colony formation assay. Type of assay: cell-based, human. As to conditions: 2 and 4 μM, 12 h incubation, colonies 10–14 days, vs vehicle control. The protocol:
In this assay, HCT116 cells were seeded in 6 well plates at a density of 250,000 cells/plate and allowed to grow overnight. Compounds 15j and 15k (0, 2 or 4 μM) were added the following day. After 12 h of incubation, the medium was discarded and cells were trypsinized with 0.25% trypsin, 2.21 mM EDTA, 1X, harvested, counted and reseeded in 6 well plates at a low density (500 cell/well). The cells were allowed to form colonies for 10–14 days at 37°C, with the medium being changed every other day. Subsequently, methanol was used to fix the colonies formed in each plate, followed by dyeing the colonies with 0.1% crystal violet dye for 30 min. Finally, colonies were viewed and counted under an EVOS microscope (Themo Fisher Scientific, Wayne, MI, USA). The colony formation rate equation was applied for each compound: Colony formation rate = number of colonies/number of seeded cells × 100 %.

Another assay relates to COLO 205 cell line. As to the kind of experiment: Transwell migration assay. The format is cell-based. As to conditions: 2 and 4 μM, data not shown. The protocol:
as §2
The development of cancer metastasis is dependent on the migration and invasive properties of cancerous cells (van Zijl et al., [2011]). The wound healing and transwell migration assays were used with LOVO cells, as a model for metastatic CRC as it is characterized by a high level of invasiveness (Fan et al., [2015]). The wound healing assay is a well-established method to detect and analyze cell migration potential (Liang et al., [2007]). […] The effect of compound 15k on the invasiveness of COLO 205 cell line was also measured using trans-well migration assay. […] 15j also reversed cell migration and metastasis at different concentrations.

Assay [6] concerns LOVO cells. As to the kind of experiment: Wound healing assay. The format is cell-based, human. As to conditions: 2 and 4 μM, 24 h and 48 h, vs vehicle. How it is done: In brief, the metastatic CRC cells (LOVO) were seeded in 6 well plates and allowed to grow as a monolayer until they reached 100% confluence. Upon confluence, 200 μl sterile tips were used to create a wound by gentle scratching of the complete cell monolayer. Sterile PBS was used to wash the cells several times to remove any floating cells. Different concentrations of the test compound were prepared in the culture media and added immediately after wound formation. The closure of the wound was observed by taking pictures at different time points by an EVOS microscope. Finally, the area of the wounds at different time points was calculated using Image J software (NIH, Bethesda, Maryland, USA).

For assay [7], the system named is HCT116 cells. As to the kind of experiment: MitoTracker Red / Alexa Fluor 488 annexin V flow cytometry. The format is cell-based, human. As to conditions: 2 or 4 μM, p < 0.001 vs control, data not shown. How it is done: The mitochondrial membrane potential and the induction of apoptosis were analyzed in HCT116 cells using the MitoTracker Red and Alexa Fluor 488 annexin V kits for flow cytometry as previously described (Karthikeyan et al., [2015]). Six well plates were used for seeding of cells, followed by incubation with 15j or 15k (0, 1, 2, and 4μM) for overnight. Subsequently, the cells were harvested, counted and 4 μl of a 10μM working solution of MitoTracker Red was added to each 1 ml cell suspension, followed by 30 min of incubation at 37°C with 5% CO2. The cells were resuspended in 100 μl of annexin binding buffer and 5 μl of Alexa Fluor 488 annexin V was added to the suspension and incubated for 15 min. Finally, 400 μl of annexin-binding buffer was added and the stained cells were detected by flow cytometry. The fluorescence emission at 530 and 585 nm was measured using a BD Accuri™ C6 flow cytometer and analyzed using FCS express 5 plus De Novo software.

Assay [8] has as its system CRC cell lines (HCT116, LOVO, and S1). The assay is described as follows: MTT assay, CRC cell lines together. Type of assay: cell-based, human. The protocol:
as §1

For `O=C(/C=C/c1cccc(OCc2ccccc2)c1)c1ccc([N+](=O)[O-])cc1` [Compound 15d], the half-inhibitory concentration (IC50) in the assay on HCT116 [1] was 22.7 ± 4.2 µM; in the assay with CRL-1459, 26 ± 1.6 µM; in the assay with CHO, 82.4 ± 1.7 µM; in the assay with LOVO, 36.3 ± 9.1 µM; with S1 it was 9 ± 1.2 µM.

As for `O=C(/C=C/c1cccc(OCc2ccccc2)c1)c1ccc(Br)cc1` [Compound 15j], the half-maximal inhibitory concentration (IC50) was 0.69 µM in the assay with HCT116 cells [2]; 1 ± 0.2 µM in the assay with HCT116 [1]; 5.4 ± 1 µM with CRL-1459; 9 ± 0.5 µM in the assay on CHO; 1.8 ± 0.4 µM with LOVO; 2.4 ± 0.7 µM in the assay on S1. Besides, the “number of cells migrated through transwell” value in the assay with LOVO cells [3] was “significantly reduced the trans-well migration”. For the same molecule, in the assay on HCT116 [4], the “effect on the cell cycle” value is given as “significantly increased the level of cells in the sub G1 phase”. In addition, the colony formation rate entry in the assay with HCT116 cells [5] is on record as “significantly decreased colony formation rate”. Besides, the trans-well migration entry with COLO 205 cell line is reported as “significantly reduced the trans-well migration”. For the same molecule, the “cell migration, wound closure” value in the assay with LOVO cells [6] is on record as “migrated significantly slower”. Further, the “mitochondrial membrane potential and apoptosis” value in the assay on HCT116 cells [7] was “significant reduction in membrane potential and increase in the number of cells undergoing apoptosis”. Also, the “selectivity, CRC cells compared to normal cells” value in assay [8] (MTT, vs CRL1459 and CHO) was “selectively cytotoxic”.

On to `O=C(/C=C/c1cccc(OCc2ccccc2)c1)c1ccc(Cl)cc1Cl` [Compound 15c], for which the IC50 with HCT116 [1] came out at 9 ± 1.1 µM; in the assay with CRL-1459, 7.8 ± 1.1 µM; in the assay on CHO it was 27.5 ± 1.2 µM; with LOVO, 6.7 ± 2.2 µM; with S1 it was 6.9 ± 1.1 µM.

Consider `COc1ccc(C(=O)/C=C/c2cccc(OCc3ccccc3)c2)cc1` [Compound 15f], for which the IC50 in the assay with HCT116 [1] was determined as 44.7 ± 3.1 µM; in the assay on CRL-1459, 25.4 ± 1.9 µM; in the assay on CHO, 22.9 ± 0.3 µM; with LOVO it was 11.8 ± 3.5 µM; in the assay on S1 it was 23.4 ± 2.4 µM.

On to `O=C(/C=C/c1cccc(OCc2ccccc2)c1)c1ccc(Cl)c(Cl)c1Cl` [Compound 15g], for which the half-inhibitory concentration (IC50) is 0.4 µM in the assay with HCT116 [1]; 2.5 ± 0.2 µM in the assay with CRL-1459; 8.6 ± 0.9 µM in the assay on CHO; 2.4 ± 0.4 µM with LOVO; 2.3 ± 0.7 µM in the assay with S1. In the assay with HCT116 [1] (from MTT IC50, cell line not given), the “fold more efficacious than compound 15c” value is recorded as 22 fold. The “fold more efficacious than compound 15c in LOVO and S1 cells” value in [8] (from MTT IC50, LOVO and S1) is reported as “three-fold”.

Take `O=C(/C=C/c1cccc(OCc2ccccc2)c1)c1ccccc1` [Compound 15a]: the concentration for half-maximal inhibition (IC50) in the assay with HCT116 [1] is 6.4 ± 0.2 µM; in the assay on CRL-1459, 7.8 ± 1 µM; in the assay with CHO, 22 ± 1.7 µM; in the assay with LOVO it was 11.5 ± 0.8 µM; in the assay with S1 it was 2.8 ± 0.5 µM.

With `O=C(/C=C/c1cccc(OCc2ccccc2)c1)c1ccccc1Br` [Compound 15h], the half-inhibitory concentration (IC50) in the assay on HCT116 [1] was 0.7 ± 0.2 µM; in the assay on CRL-1459, 2.4 ± 0.9 µM; in the assay on CHO it was 9.1 ± 0.2 µM; in the assay on LOVO, 1.9 ± 0.3 µM; in the assay on S1, 1.9 ± 0.5 µM.

Take `O=C(/C=C/c1cccc(OCc2ccccc2)c1)c1ccc(Cl)cc1` [Compound 15b]: the IC50 with HCT116 [1] was 12.7 ± 1.4 µM; in the assay with CRL-1459, 12.8 ± 2.1 µM; in the assay with CHO it was 43.6 ± 1.9 µM; with LOVO, 36.5 ± 1.5 µM; with S1, 9.5 ± 1.4 µM.

With `O=C(/C=C/c1cccc(OCc2ccccc2)c1)c1cccc(Br)c1` [Compound 15i], the IC50 in the assay on HCT116 [1] was 1.9 ± 0.1 µM; with CRL-1459 it was 7.2 ± 0.9 µM; in the assay on CHO, 9.2 ± 0.4 µM; with LOVO, 7.5 ± 0.9 µM; in the assay on S1, 6.2 ± 1.9 µM.

Turning to `Cc1ccc(C(=O)/C=C/c2cccc(OCc3ccccc3)c2)cc1` [Compound 15e], the IC50 in the assay with HCT116 [1] worked out at 16.5 ± 3.1 µM; in the assay on CRL-1459 it was 19.8 ± 1.3 µM; in the assay on CHO it was 26.4 ± 0.9 µM; in the assay with LOVO, 36.5 ± 1.3 µM; with S1, 22.4 ± 1.9 µM.
